{"source": "patent US5045319A", "about": "“Transdermal dosage unit, system and process” (Rutgers, The State University of New Jersey, priority 1988, dated 1991)", "key": {"[1]": {"experiment": "in-vivo plasma propranolol after topical application of TMAD on inner pinna of rabbit", "settings": "FIG. A-7, rabbits", "procedure": "(§1) Both in-vitro release and skin permeation studies can then be conducted by mounting the device (with or without skin) onto a Valia-Chien diffusion cell at 37° C. In-vivo studies can be conducted by placing the patch on the pinna (ear) of a rabbit and taking blood samples which can be analyzed for propranolol (results on the attached sheets)."}, "[2]": {"experiment": "in-vitro skin permeation of propranolol from TMAD (Valia-Chien diffusion cell, with skin)", "format": "in vitro ADME", "settings": "delivered from TMAD", "procedure": "as §1\nIn this case, the enhancer laminate would be fabricated by combining an aliphatic alcohol with adhesive in a 1.25:10 ratio. The enhancer laminate would then be solvent cast and laminated as in Example 1. The devices can then be evaluated in-vitro and in-vivo. (results shown on the attached sheets)."}, "[3]": {"experiment": "in-vitro release of propranolol from multilaminate transdermal device (Valia-Chien diffusion cell, without skin)", "format": "physicochemical", "settings": "for RELEASE RATE OF PROPRANOLOL: Example 2, SPE-m-TAD", "procedure": "as §1\nThe release rate of drug from the SPE-m-TAD can be changed by the alteration of the drug load in the outer drug laminate."}}, "data": [{"molecule": "CC(C)NCC(O)COc1cccc2ccccc12", "note": "(racemic) [propranolol, Propranolol]", "values": [{"measurement": "plasma concentration profiles of propranolol", "setting": "[1]; 24-hr topical application of TMAD on inner pinna ear", "value": "long-acting plasma concentration profiles"}, {"measurement": "systemic bioavailability of propranolol, as shown by plasma levels", "setting": "[1]; 24-hr topical application of TMAD with various skin permeation enhancers", "value": "improved the systemic bioavailability, as shown by elevated constant plasma levels"}, {"measurement": "enhancement in skin permeation rate of propranolol by alkyl alcohols", "setting": "[2]; FIG. A-4, dependence on alkyl chain length n of alcohols", "value": "The rate of skin permeation increases as increasing the alkyl chain length of the alcohols and reaches the maximum level at n=12~14"}, {"measurement": "enhancement in skin permeation rate of propranolol by alkanoic acids", "setting": "[2]; FIG. A-5, dependence on alkyl chain length n of acids", "value": "The rate of skin permeation shows a sinoidal dependence on the alkyl chain length of the acids and with the maximum rates at n=3 and 16"}, {"measurement": "enhancement in skin permeation rate of propranolol by esters of Lauric Acid (n=12)", "setting": "[2]; FIG. A-6, dependence on alkyl chain length n of esters", "value": "The rate of skin permeation increases first and then levels off as increasging the alkyl chain length of the esters and reaches the maximum level at n=2"}, {"measurement": "RELEASE RATE OF PROPRANOLOL", "setting": "[3]; propranolol drug load in outer drug laminate 3%", "value": 48.1, "unit": "ug cm^-2 hr^-1"}, {"measurement": "RELEASE RATE OF PROPRANOLOL", "setting": "[3]; propranolol drug load in outer drug laminate 5%", "value": 49.9, "unit": "ug cm^-2 hr^-1"}, {"measurement": "RELEASE RATE OF PROPRANOLOL", "setting": "[3]; propranolol drug load in outer drug laminate 7%", "value": 52.2, "unit": "ug cm^-2 hr^-1"}, {"measurement": "RELEASE RATE OF PROPRANOLOL", "setting": "[3]; propranolol drug load in outer drug laminate 20%", "value": 59.1, "unit": "ug cm^-2 hr^-1"}, {"measurement": "drug release kinetics", "setting": "[3]; FIG. A-2, only extremely small particle size (1.5 μm) propranolol crystals in outer laminate layer", "value": "Device-controlled zero-order drug release kinetics was achieved"}, {"measurement": "zero-order release profile of propranolol from TMAD, effect of skin permeation enhancers", "setting": "[3]; FIG. A-3, various skin permeation enhancers in contact adhesive polymer coating", "value": "did not affect the zero-order release profile"}, {"measurement": "overall release of propranolol from the device", "setting": "[3]; SPE-m-TAD, decreasing drug load in outer drug laminate, particle size 1.5 microns", "value": "can be reduced, while still maintaining zero-order release kinetics"}]}]}
